The nature of data set [1]: Stability of the analytes in rat plasma and processed plasma samples. The data set is classed as in vitro ADME. The conditions noted are these: for Stability, post-preparative: acetonitrile-precipitated plasma supernatant, 24 h at 6°C in autosampler; for Stability, long-term (–70 °C) / Stability, short-term / Stability, freeze–thaw (three cycles): rat plasma; for Stability, long-term (–70 °C): 3 months at −70°C; for Stability, short-term: 4 h at room temperature; for Stability, freeze–thaw (three cycles): −70°C to room temperature. As to the method: The stability of the 13 analytes in rat plasma were assessed by analyzing samples spiked 0.2, 2.7, and 58.3 ng/mL for emodin, aloe-emodin, questin, citreorosein, questinol, TG, CG, EG, PG; 0.6, 8.1, and 175 ng/mL for TSG; 1, 13.5, and 291.6 ng/mL for rhein, physcion; and 2, 27, and 583.2 ng/mL for chrysophanol, respectively, under four conditions: (1) short-term storage for 4 h at room temperature; (2) long-term storage for (3 months at −70°C; (3) three freeze-thaw cycles; and (4) posttreatment storage for 24 h at 6°C setting in UPLC autosampler. The concentrations obtained were compared with the nominal values of the spiked samples. The stability was calculated as the percent of the measured concentration to the initial concentration at time zero. The analytes were considered stable if the assay values were within the acceptable limit of accuracy (85.0∼115%).

The nature of data set [2]: Pharmacokinetic study in rats after oral administration of RPM extract (UPLC-MS/MS of plasma). Type of data set: in vivo, Sprague-Dawley rats. The note with it: for Latest plasma sample time at which the constituent was detected / Detection in rat plasma after oral RPM extract: RPM extract 36 g/kg oral; for Latest plasma sample time at which the constituent was detected: sampling up to 24 h; for Detection in rat plasma after oral RPM extract: real plasma samples. As to the method:
The analysis was performed on an AB Sciex API 5500 Q Trap mass spectrometer (Toronto, Canada), interfaced with a Waters Acquity UPLC separation module. Empower 3.0 and Analyst 1.62 software were used to control UPLC and mass spectrometer, respectively.
Chromatographic separation was achieved on a waters HSS C18 column (100 × 2.1 mm, 1.8 μm, kept at 40°C) using a mobile phase containing 0.025% formic acid that consisted of solvent A (water) and solvent B (acetonitrile). The mobile phase was delivered at 0.3 mL/min, and a gradient program was used as follows: 0-1 min, held 5% to 25% solvent B; 1–3.5 min, linear gradient from 25% to 35% solvent B; 3.5–5 min, linear gradient from 35% to 40% solvent B; 5-6 min, linear gradient from 40% to 60% solvent B; 6-6.1 min, linear gradient from 60% to 95% solvent B; 6.1–8 min, linear gradient from 95% to 100% solvent B; and 8-9 min, held 5% solvent B.
The MS detection was set in positive multiple reaction monitoring (MRM) mode for the analytes and IS. The turbo spray temperature was maintained at 500°C. The nebulizer gas (gas 1), heater gas (gas 2), and curtain gas was set at 45, 50, and 45 psi, respectively. The interface heater was on. The precursor ion, corresponding product ion and dwell time along with declustering potential (DP), entrance potential (EP), collision energy (CE), and collision exit potential (CXP) for each compound were optimized with standard substance. The dwell time was 50 ms for all analytes. The EP and CXP were set at –10 V and −16 V, respectively.
Sample preparations were made using the protein precipitation process. 50 μL thawed plasma, 10 μL IS working solution (puerarin 10 μg/mL), and 150 μL acetonitrile were added to a 1.5 mL tube in that order. After vortexed for 5 min and centrifuged at 12,000 g for 5 min at 4°C, 150 μL of the supernatant was transferred and a 5 μL was injected into the UPLC-MS/MS instrument for analysis.
Male Sprague-Dawley rats (200–240 g) were obtained from Beijing Vital River Laboratory Animal Technology Co., Ltd. (Beijing, China) (SCXK 2016(jing)-0006). The animals were maintained in SPF animal room at temperature 22 ± 2°C, 60 ± 5% humidity, and 12/12 h day/night cycle. All procedures were approved by the Institutional Animal Ethics Committee and performed in accordance with the Regulations of Experiment Animal Administration issued by the State Committee of Science and Technology of China. RPM extract suspended in an equal volume of 5% CMC-Na solution and orally administered to the six rats at a single dose of 36 g/kg (dose calculated as grams of crude materials used to create the extract per kilogram of rat body weight). The dose was set at a subtoxic level to investigate the pharmacokinetic profiles of the constituents of RPM and were approximately 72 times the upper dose (6 g/day) of human recommended by the 2015 edition of Chinese Pharmacopoeia (converted to rat dose based on body surface area conversion). The calculated doses of compounds based on the contents in the extract were 7.38, 14.8, 13.7, 8.82, 15.5, 11.2, 55.8, 1.08, 1170, 11.3, 25.7, 131.4, and 13.0 mg/kg for chrysophanol, emodin, aloe-emodin, rhein, physcion, questin, citreorosein, questinol, TSG, TG, CG, EG, and PG, respectively. Rats were fasted for at least 12 h before the experiments and had free access to water. Blood samples (∼0.25 mL) were collected from the retinal venous plexus into heparinized 1.5 mL polythene tubes before administration and 5, 15, and 30 min and 1, 2, 4, 6, 8, 12, and 24 h after dosing RPM extract at dose of 36 g/kg. The plasma was immediately separated from blood samples and stored frozen at −70°C until analysis.
The pharmacokinetic parameters were calculated using the pharmacokinetic software Phoenix® WinNonlin®, version 7.0 (Scientific Consulting Inc., Apex, NC, USA). The peak plasma concentration (Cmax) and time to reach Cmax (Tmax) were read directly from the experimental data. […]

Where [3] appears, read: high QC (58.3 ng/mL; TSG 175; rhein, physcion 292; chrysophanol 583).
The mark [4] stands for this setting: low QC (0.2 ng/mL; TSG 0.6; rhein, physcion 1; chrysophanol 2).
The mark [5] stands for this setting: middle QC (2.7 ng/mL; TSG 8.1; rhein, physcion 13.5; chrysophanol 27).
[6] abbreviates: male, Sprague-Dawley, rat, plasma, po, 36 g/kg, rat plasma, single oral dose of RPM extract 36 g/kg, n = 6, mean ± SD, read-out: AUC0–t.
Where [7] appears, read: male, Sprague-Dawley, rat plasma, single oral dose of RPM extract 36 g/kg, n = 6, mean ± SD, read-out: AUC0–∞.
[8] abbreviates: male, Sprague-Dawley, rat plasma, single oral dose of RPM extract 36 g/kg, n = 6, mean ± SD, read-out: Cmax.
Setting [9] is: male, Sprague-Dawley, rat plasma, single oral dose of RPM extract 36 g/kg, n = 6, mean ± SD, read-out: MRT0–∞.
[10] abbreviates: male, Sprague-Dawley, rat plasma, single oral dose of RPM extract 36 g/kg, n = 6, mean ± SD, read-out: Tmax.
[11] abbreviates: male, Sprague-Dawley, rat plasma, single oral dose of RPM extract 36 g/kg, n = 6, mean ± SD, read-out: t1/2 (converted).
Where [12] appears, read: male, Sprague-Dawley, rat, in vivo, po, 36 g/kg.

From publication PMC7072103, “Simultaneous Determination of 13 Constituents of Radix Polygoni Multiflori in Rat Plasma and Its Application in a Pharmacokinetic Study” (International Journal of Analytical Chemistry, 2020) come the findings set out here.

Entries after “also recorded” stand apart in the source; their conditions may differ. Where two headings read alike, the source gives them in different places.

As usually defined, the Cmax is the peak of the concentration-time curve. For orientation: Tmax means the time at which the peak concentration occurs. As to `O=C1c2cccc(O)c2C(=O)c2c(O)cc(CO)cc21` [Aloe-emodin, aloe-emodin], in data set [1] (setting [3]), the “Stability, post-preparative” value was 92.6%; the “Stability, long-term (–70 °C)” value came to 102%; the “Stability, short-term” value came out at 104%; the “Stability, freeze–thaw (three cycles)” value amounted to 101%. In addition, in data set [1] (setting [4]), the “Stability, post-preparative” value is on record as 96.4%; the “Stability, long-term (–70 °C)” value stood at 103%; the “Stability, short-term” value came to 105%; the “Stability, freeze–thaw (three cycles)” value is listed as 99%. For the same compound, in data set [1] (setting [5]), the “Stability, post-preparative” value was 102%; the “Stability, long-term (–70 °C)” value is reported as 98.4%; the “Stability, short-term” value is on record as 105%; the “Stability, freeze–thaw (three cycles)” value was determined as 97.2%. Moreover, the “Latest plasma sample time at which the constituent was detected” value (“Latest plasma sample time” below) in data set [2] was no more than 12 h. Further, in data set [2] (male, Sprague-Dawley, in vivo, rat plasma, single oral dose of RPM extract 36 g/kg, n = 6, mean ± SD, read-out: AUC0–∞), the AUC(0-inf) turned out to be 8.46 ± 3.44 ng·h/mL. Further, in data set [2] (male, Sprague-Dawley, in vivo, rat plasma, single oral dose of RPM extract 36 g/kg, n = 6, mean ± SD, read-out: Cmax), the Cmax turned out to be 11.3 ± 3.1 ng/mL. The MRT inf in data set [2] (male, Sprague-Dawley, in vivo, rat plasma, single oral dose of RPM extract 36 g/kg, n = 6, mean ± SD, read-out: MRT0–∞) amounted to 3.17 ± 1.54 h. In addition, the time of peak concentration (Tmax) in data set [2] (male, Sprague-Dawley, in vivo, rat plasma, single oral dose of RPM extract 36 g/kg, n = 6, mean ± SD, read-out: Tmax) worked out at 0.22 ± 0.07 h. In addition, the half-life in data set [2] (male, Sprague-Dawley, in vivo, rat plasma, single oral dose of RPM extract 36 g/kg, n = 6, mean ± SD, read-out: t1/2 (converted)) is 3.44 ± 1.4 h. In addition, the AUC(0-t) in data set [2] (male, Sprague-Dawley, rat, in vivo, po, 36 g/kg, rat plasma, single oral dose of RPM extract 36 g/kg, n = 6, mean ± SD, read-out: AUC0–t) amounted to 7.28 ± 3.25 ng·h/mL.

`Cc1cc(O)c2c(c1)C(=O)c1cccc(O)c1C2=O` [Chrysophanol, chrysophanol]: in data set [2], the “Latest plasma sample time” value is no more than 6 h. Further, the AUC(0-t) in data set [2] (setting [6]) amounted to 4.28 ± 1.64 ng·h/mL. For the same compound, the AUC(0-inf) in data set [2] (setting [7]) turned out to be 10.3 ± 1.87 ng·h/mL. In addition, in data set [2] (setting [8]), the peak concentration (Cmax) was 1.9 ± 0.56 ng/mL. For the same compound, the MRT inf in data set [2] (setting [9]) turned out to be 6.76 ± 2.06 h. The Tmax in data set [2] (setting [10]) turned out to be 2.22 ± 1.76 h. Moreover, the half-life in data set [2] (setting [11]) was 3.18 ± 0.62 h.

Turning to `O=C1c2cc(O)cc(O)c2C(=O)c2c(O)cc(CO)cc21` [Citreorosein, 1,3,8-trihydroxy-6-(hydroxymethyl)anthracene-9,10-dione], in data set [2] (male, Sprague-Dawley, rat, in vivo, po), the “Relative bioavailability versus emodin (AUC0–t normalized by molecular weight and dose)” value is listed as 15.8%. Further, in data set [2] (setting [12]), the “AUC0–t” value was determined as 131 ± 96.9 ng·h/mL, the “AUC0–t relative to that of emodin” value came out at 6.0 fold, the AUC(0-inf) worked out at 134 ± 96.4 ng·h/mL and the Cmax is 149 ± 147 ng/mL. Besides, in data set [2] (setting [12]), the MRT inf turned out to be 5.32 ± 1.85 h, the Tmax is 0.19 ± 0.09 h and the half-life was 3.97 ± 1.31 h. The same compound yielded an AUC(0-t) in data set [2] (male, Sprague-Dawley, rat, in vivo, po, 36 g/kg, AUC0–t) of 134 ± 96.4 ng·h/mL.

For `COc1cc(O)c2c(c1)C(=O)c1cc(C)cc(O)c1C2=O` [Physcion, physcion], the entries for the “Detection in rat plasma after oral RPM extract” value in data set [2] and in data set [2] (listed as physcion) were “not detected” and “too low to be detected”, respectively.

As for `COc1cc(O)cc2c1C(=O)c1c(O)cc(C)cc1C2=O` [Questin, questin], the “Detection in rat plasma after oral RPM extract” value in data set [2] is listed as “not detected; also recorded: too low to be detected”.

As to `O=C(O)c1cc(O)c2c(c1)C(=O)c1cccc(O)c1C2=O` [Rhein, rhein], the “Latest plasma sample time” value in data set [2] is listed as no more than 2 h. In addition, in data set [2] (setting [6]), the AUC(0-t) turned out to be 1.11 ± 0.63 ng·h/mL. In addition, the AUC(0-inf) in data set [2] (setting [7]) is 2.31 ± 0.51 ng·h/mL. The Cmax in data set [2] (setting [8]) worked out at 1.06 ± 0.24 ng/mL. Moreover, the MRT inf in data set [2] (setting [9]) came to 1.83 ± 0.56 h. In addition, in data set [2] (setting [10]), the Tmax was 0.46 ± 0.1 h. For the same compound, in data set [2] (setting [11]), the half-life was 1.18 ± 0.39 h.

Turning to `COc1cc(O[C@@H]2O[C@H](CO)[C@@H](O)[C@H](O)[C@H]2O)c2c(O)c(C(C)=O)c(C)cc2c1` [TG, torachrysone-8-O-glucoside], the AUC(0-t) in data set [2] (setting [6]) is 21.2 ± 7.38 ng·h/mL. Moreover, in data set [2] (setting [7]), the AUC(0-inf) came to 21.7 ± 7.48 ng·h/mL. For the same compound, in data set [2] (setting [8]), the peak concentration (Cmax) stood at 18.7 ± 4.06 ng/mL. Besides, the MRT inf in data set [2] (setting [9]) was 2.1 ± 0.24 h. Besides, the Tmax in data set [2] (setting [10]) came to 0.11 ± 0.07 h. Besides, in data set [2] (setting [11]), the half-life is 2 ± 0.63 h.

`OC[C@H]1O[C@@H](Oc2c(O)cc(O)cc2/C=C/c2ccc(O)cc2)[C@H](O)[C@@H](O)[C@@H]1O` [TSG, 2,3,5,4′-tetrahydroxystilbene-2-O-β-D-glucoside]: in data set [2] (setting [6]), the AUC(0-t) was found to be 1870 ± 554 ng·h/mL. Also, the AUC(0-inf) in data set [2] (setting [7]) amounted to 1870 ± 581 ng·h/mL. Besides, the Cmax in data set [2] (setting [8]) was found to be 1740 ± 401 ng/mL. The MRT inf in data set [2] (setting [9]) was determined as 3.66 ± 0.97 h. In addition, the time to peak (Tmax) in data set [2] (setting [10]) was determined as 0.33 ± 0.13 h. Moreover, in data set [2] (setting [11]), the half-life is 5.98 ± 2.62 h. In data set [2] (rat plasma, single oral dose of RPM extract 36 g/kg, n = 6, mean ± SD), the “AUC0–t” value is 1811 ± 554 ng·h/mL.
